The test has as its target Human Fatty Acid Binding Protein (FABP4) (Homo sapiens, UniProt P15090). Briefly: Binding inhibition assay: displacement of the fluorescent probe ANS from FABP4. The conditions noted are these: for binding to FABP4 (in words): ANS displacement.

The structures appear in SMILES notation.

A word on the Kd: it is the equilibrium constant for the complex coming apart. A high value points to weaker binding.

Human Fatty Acid Binding Protein (FABP4), sequence (P15090 whole entry): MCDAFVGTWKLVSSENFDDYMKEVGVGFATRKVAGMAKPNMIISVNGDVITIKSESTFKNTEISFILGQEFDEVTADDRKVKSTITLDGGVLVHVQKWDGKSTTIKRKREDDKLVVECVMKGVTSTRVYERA

For `O=C(O)C(F)(F)C(F)(F)C(F)(F)C(F)(F)C(F)(F)C(F)(F)C(F)(F)C(F)(F)C(F)(F)C(F)(F)C(F)(F)F` [PFDoA, Perfluorododecanoic Acid], the Kd was under 1 µM. Consider `CCCCCC(=O)O` [Hexanoic Acid], for which the “binding to FABP4 (in words)” value is “no detectable binding”. Take `O=C(O)C(F)(F)C(F)(F)C(F)(F)C(F)(F)C(F)(F)C(F)(F)F` [PFHpA, Perfluoroheptanoic Acid]: the Kd is 4.46 ± 0.17 µM. Besides, the “fold increase in affinity relative to hydrogenated analog heptanoic acid” value (ratio of Kd values) is “approximately 30 fold”.

As to `CCCC(=O)O` [Butanoic Acid], the “binding to FABP4 (in words)” value is given as “no detectable binding”. On to `CCCCC(=O)O` [Pentanoic Acid], for which the “binding to FABP4 (in words)” value is given as “no detectable binding”. In turn, `CCCCCCC(=O)O` [Heptanoic Acid] registered a dissociation constant Kd of 145 ± 3.1 µM.

Source of the values: publication PMC11974712 (bioRxiv, 2025).
